Legend:
[1] = test system: effets β1 (augmentation de la force contractile du myocarde) de l'isoprénaline; assay: β-blocking activity: inhibition of the β1 effects of intravenous isoprenaline in anaesthetised dogs; type: in vivo, chiens; settings: dog; for inhibition at 0.001 mg/kg / inhibition at 0.003 mg/kg / inhibition at 0.01 mg/kg / inhibition at 0.1 mg/kg: Canis lupus familiaris, iv, inhibition given with negative sign, read-out: % d'inhibition des effets β1^(+) de l'Isoprénaline; for inhibition at 0.001 mg/kg: 0,001 mg/kg I.V.; for inhibition at 0.003 mg/kg: 0,003 mg/kg I.V.; for inhibition at 0.01 mg/kg: 0,010 mg/kg I.V.; for inhibition at 0.1 mg/kg: 0,100 mg/kg I.V.
Method: (§1) Des chiens tout-venants mâles ou femelles sont anesthésiés au mébubarbital sodique (30 mg/kg I.V.) et ventilés artificiellement par une pompe Pesty RPP. Ils sont supplémentés en oxygène.
(§2) On mesure: • - la pression carotidienne systolique et diastolique • - la force contractile du myocarde.
(§3) Les signaux sont amplifiés et enregistrés sur Dynograph Beckman.
(§4) L'activité β bloquante adrénergique a été étudiée vis-à-vis des effets β1 (augmentation de la force contractile du myocarde) et des effets P2 (diminution de la pression artérielle disstolique) de l'isoprénaline administrée par voie intraveineuse.
(§5) On calcule le pourcentsge d'inhibition des effets β1 et des effets β2 de l'isoprénaline en fonction des doses (mg.kg I.V.) des différents exemples.
(§6) Les exemples sont injectés dans le veine saphène aux doses (exprimées en base) de: 0,0003 0,001 0,003 0,01 0,1 1,0 et 4,0 ou 8,0 mg.kg-1.

[2] = test system: rat génétiquement hypertendu: Rat OKAMOTO; assay: Antihypertensive activity in spontaneously hypertensive rats (tail-cuff systolic pressure and heart rate after oral dosing); type: in vivo
Method: Des rats mâles âgés de 13 à 21 semaines présentant une hypertension spontanée génétiquement transmissible (souche OKAMOTO provenance IFFA CREDO) sont placés dans une enceinte thermostatée à 38°C. Les rats sont laissés en situation libre. La pression artérielle est mesurée par un sphygmomanomètre Narco Biosystem. Un manchon est placé à la base de la queue et un détecteur enregistre le pouls en aval du manchon. Celui-ci est gonflé jusqu'à suppression du pouls il est ensuite progressivement dégonflé. La pression mesurée à la reprise des battements cardiaques est la pression artérielle systolique. On calcule la fréquence cardiaque à partir de l'enregistrement du pouls artériel. Les produits à étudiar sont mis en suspension el administrés par voie orale sous un volume de 1 ml pour 100 g de poids corporel. Les mesures sont répétées à intervalles réguliers.
Les valeurs moyennes avant traitement pour les différents lots de rats sont pour la pression artérielle systolique de 190 à 200 mmHg et pour la fréquence cardiaque de 305 à 350 battements par minute.
Le tableau III ci-après donne la moyenne des variations de la pression systolique (mmHg) de la fréquence cardisque (battements/minute) et les écarts type à la moyenne obtenus 1 heure 3 heures et 5 heures après administration orale.

[3] = test system: effets β2 (diminution de la pression artérielle diastolique) de l'isoprénaline; assay: β-blocking activity: inhibition of the β2 effects of intravenous isoprenaline in anaesthetised dogs; type: in vivo, chiens; settings: dog; for inhibition at 0.001 mg/kg / inhibition at 0.003 mg/kg / inhibition at 0.01 mg/kg / inhibition at 0.1 mg/kg: Canis lupus familiaris, iv, inhibition given with negative sign, read-out: % d'inhibition des effets β2^⊕ de l'Isoprénaline; for inhibition at 0.001 mg/kg: 0,001 mg/kg I.V.; for inhibition at 0.003 mg/kg: 0,003 mg/kg I.V.; for inhibition at 0.01 mg/kg: 0,010 mg/kg I.V.; for inhibition at 0.1 mg/kg: 0,100 mg/kg I.V.
Method: as §1, §2, §3, §4, §5, §6

[4] = 1.0 mg.kg^-1 voie intraveineuse
[5] = 4.0 mg.kg^-1 voie intraveineuse
[6] = 128 mg.kg^-1 V.O, T+3 heures, mean
[7] = 128 mg.kg^-1 V.O, T+5 heures, mean

| Compound | inhibition at 0.001 mg/kg [1] [%] | inhibition at 0.003 mg/kg [1] [%] | inhibition at 0.01 mg/kg [1] [%] | inhibition at 0.1 mg/kg [1] [%] | Fréquence cardiaque Δ (battements/min) T+1 heure m (sm) ([2]; 64 mg.kg^-1 V.O, T+1 heure) | Pression systolique Δ (mmHg) T+1 heure m (sm) ([2]; 64 mg.kg^-1 V.O, T+1 heure) | Pression systolique Δ (mmHg) T+3 heures m (sm) ([2]; 64 mg.kg^-1 V.O, T+3 heures) | Fréquence cardiaque Δ (battements/min) T+5 heures m (sm) ([2]; 64 mg.kg^-1 V.O, T+5 heures) | Pression systolique Δ (mmHg) T+5 heures m (sm) ([2]; 64 mg.kg^-1 V.O, T+5 heures) | inhibition at 0.001 mg/kg [3] [%] | inhibition at 0.003 mg/kg [3] [%] | inhibition at 0.01 mg/kg [3] [%] | inhibition at 0.1 mg/kg [3] [%] | Fréquence cardiaque Δ (battements/min) T+1 heure m (sm) ([2]; 128 mg.kg^-1 V.O, T+1 heure) | Pression systolique Δ (mmHg) T+1 heure m (sm) ([2]; 128 mg.kg^-1 V.O, T+1 heure) | Fréquence cardiaque Δ (battements/min) T+3 heures m (sm) ([2]; 128 mg.kg^-1 V.O, T+3 heures) | Pression systolique Δ (mmHg) T+3 heures m (sm) ([2]; 128 mg.kg^-1 V.O, T+3 heures) | Fréquence cardiaque Δ (battements/min) T+5 heures m (sm) ([2]; 128 mg.kg^-1 V.O, T+5 heures) | Pression systolique Δ (mmHg) T+5 heures m (sm) ([2]; 128 mg.kg^-1 V.O, T+5 heures) | further results |
| --- | --- | --- | --- | --- | --- | --- | --- | --- | --- | --- | --- | --- | --- | --- | --- | --- | --- | --- | --- | --- |
| CC(C)(C)NCC(O)COc1ccc(NC(=O)Cc2ccsc2)cc1Cl (centres unmarked) [exemple 45, 1-[2-chloro 4-(3-thiénylacétamido)phénoxy] 3-terbutylamino 2-propanol] | -30 | -60 | -86 | -100 | +45 (6) battements/min | -32 (5) mmHg | -14 (9) mmHg | +30 (10) battements/min | -28 (5) mmHg | -12 | -5 | -23 | -33 | – | – | – | – | – | – | – |
| CC(C)(C)NCC(O)COc1ccc(NC(=O)Cc2cccs2)cc1F (centres unmarked) [exemple 47, 1-[2-fluoro 4-(2-thiénylscétamido)phénoxy] 3-terbutylamino 2-propanol] | -12 | -33 | -66 | -96 | – | – | – | – | – | -24 | -4 | 0 | -12 | – | – | – | – | – | – | – |
| CC(C)NCC(O)COc1ccc(NC(=O)Cc2cccs2)cc1C#N (centres unmarked) [exemple 8, 1-[2-cyano 4-(2-thiénylacétamido)phénoxy] 3-isopropylamino 2-propanol] | -5 | -12 | -38 | -64 | – | – | – | – | – | 0 | 0 | 0 | 0 | +31 (11) battements/min | -39 (8) mmHg | +36 (7) battements/min | -31 (9) mmHg | +12 (13) battements/min | -25 (5) mmHg | Pourcentages d'inhibition des effets β1 de l'Isoprénaline ([1]; 0.001 mg.kg^-1 voie intraveineuse): 5%; Pourcentages d'inhibition des effets β1 de l'Isoprénaline ([1]; 0.003 mg.kg^-1 voie intraveineuse): 12%; Pourcentages d'inhibition des effets β1 de l'Isoprénaline ([1]; 0.01 mg.kg^-1 voie intraveineuse): 38%; Pourcentages d'inhibition des effets β1 de l'Isoprénaline ([1]; 0.1 mg.kg^-1 voie intraveineuse): 64%; Pourcentages d'inhibition des effets β1 de l'Isoprénaline [1, 4]: 86%; Pourcentages d'inhibition des effets β1 de l'Isoprénaline [1, 5]: 100%; Pression systolique Δ (mmHg) T+1 heure m ([2]; 128 mg.kg^-1 V.O, T+1 heure, mean): -39 mmHg; Fréquence cardiaque Δ (battements/minute) T + 3 heures m [2, 6]: +36 battements/minute; Pression systolique Δ (mmHg) T+3 heures m [2, 6]: -31 mmHg; Fréquence cardiaque Δ (battements/minute) T + 5 heures m [2, 7]: +12 battements/minute; Pression systolique Δ (mmHg) T+5 heures m [2, 7]: -25 mmHg; Pourcentages d'inhibition des effets β2 de l'Isoprénaline [3, 4]: 16%; Pourcentages d'inhibition des effets β2 de l'Isoprénaline [3, 5]: 100% |
| CC(C)NCC(O)COc1ccc(NC(=O)Cc2cccs2)cc1Cl (centres unmarked) [exemple 44, 1-[2-chloro 4-(2-thiénylacétamido)phénoxy] 3-isopropylamino 2-propanol] | -27 | -46 | -67 | -82 | – | – | – | – | – | -11 | -22 | -18 | -15 | +68 (5) battements/min | -37 (11) mmHg | +45 (12) battements/min | -48 (11) mmHg | +52 (11) battements/min | -53 (11) mmHg | – |
| CC(C)NCC(O)COc1ccc(NC(=O)Cc2ccsc2)cc1C#N (centres unmarked) [exemple 10, 1-[2-cyano 4-(3-thiénylacétamido)phénoxy] 3-isopropylamino 2-propanol] | -22 | – | -47 | -91 | – | – | – | – | – | -21 | – | -33 | -39 | +25 (15) battements/min | -13 (12) mmHg | +28 (7) battements/min | -5 (9) mmHg | +25 (7) battements/min | -26 (8) mmHg | – |
| CC(C)(C)NCC(O)COc1ccc(NC(=O)Cc2ccsc2)cc1Br (centres unmarked) [exemple 41, 1-[2-bromo 4-(3-thiénylacétamido)phénoxy] 3-terbutylamino 2-propanol] | -12 | -49 | -83 | -97 | +57 (18) battements/min | -44 (14) mmHg | -30 (10) mmHg | +68 (16) battements/min | -33 (12) mmHg | -3 | 0 | -31 | -55 | – | – | – | – | – | – | Fréquence cardiaque Δ (battements/min) T+3 heures m (sm) ([2]; 64 mg.kg^-1 V.O, T+3 heures): +55 (15) battements/min |
| CC(C)NCC(O)COc1ccc(NC(=O)Cc2cccs2)cc1F (centres unmarked) [exemple 48, 1-[2-fluoro 4-(2-thiénylacétamido)phénoxy] 3-isopropylamino 2-propanol] | -11 | -23 | -41 | -83 | +38 (10) battements/min | -51 (6) mmHg | -50 (6) mmHg | +27 (10) battements/min | -45 (6) mmHg | -27 | -31 | -46 | -52 | – | – | – | – | – | – | Fréquence cardiaque Δ (battements/min) T+3 heures m (sm) ([2]; 64 mg.kg^-1 V.O, T+3 heures): +41 (8) battements/min |
| CC(C)NCC(O)COc1ccc(NC(=O)Cc2ccsc2)cc1Cl (centres unmarked) [exemple 46, 1-[2-chloro 4-(3-thiénylacétamido)phénoxy] 3-isopro-pylamino 2-propanol] | -17 | -44 | -84 | -100 | – | – | – | – | – | -5 | -5 | -20 | -19 | – | – | – | – | – | – | – |

Source: patent EP0071535B1, “(4-(2 and/or 3-Thienylacetamido)-phenoxy)-hydroxyaminopropanes, their preparation, their therapeutic use and intermediates” (CARPIBEM (CENTRE D'ACTIVITE ET DE RECHERCHE PHARMACEUTIQUE …, priority 1981, dated 1983)
